Experimental data reported in paper PMC3791872 (Bioscience Reports, 2013).
pIC50: −log10 of the molar value.

Experiments:
pUC19 = experiment: DNA intercalation assay (Topo I-relaxed plasmid); format: biochemical; conditions: 1 mM inhibitor added after plasmid relaxation (Figure 3C)
Text: To examine this model, we tested our inhibitors in a standard topoisomerase assay. The rationale of this assay is that intercalating compounds will introduce supercoils into a fully relaxed plasmid. Topo I will remove these introduced supercoils, but after quenching and gel electrophoresis the intercalator will diffuse away and produce a detectable compensatory supercoiling increase.

RPE-hTERT cells = experiment: Human cell viability, MTS method; format: cell-based; conditions: Homo sapiens, 48 h, value (95% CI)
Method: Ciproﬂoxacin is an inhibitor of the Mcm2-7 […]
The viability of human cells was assayed using the MTS method
[1]. Brieﬂy, 1 ×10^5 cells of the human non-tumour cell line RPE-hTERT were plated into each well of a 96-well plate and grown in DMEM: F12 containing 10 % (v/v) FBS in 5 % (v/v) CO2 at 37 ◦ C. The next day, the indicated compounds were titrated into media such that the ﬁnal concentration contained 1 % (v/v)
DMSO. As a negative control, media were also prepared that contained 1 % DMSO but lacked compound. After 48 h, the media was removed and replaced with DMEM lacking phenol red but containing Cell Titer 96 Aqueous One Solution Cell Proliferation
Assay (Promega). After 1 h, the A490 nm was measured using a BioRad iMark Microplate Reader (Hercules). Final data reﬂect the average and standard deviation (S.D.) of three replicates at each compound concentration. […]

SV40 large TAg [1] = target: T1, SV40 large TAg (Simian virus 40, UniProt P03070); experiment: Steady-state ATP hydrolysis by TAg; format: biochemical, SV40 (simian virus 40); conditions: 1 mM compound, 100 nM hexamer
T1 construct: made in house

Mcm2-7 [2] = test system: T2, Mcm2-7; experiment: Steady-state ATP hydrolysis by Mcm2-7; format: biochemical, Saccharomyces cerevisiae; conditions: 1 mM compound, 100 nM hexamer
T2 construct: made in house; host or cells: baculovirus-infected insect cells

[3] = test system: S. cerevisiae ∆erg6 mcm4chaos3 (UPY1056); experiment: Yeast growth inhibition, 96-well assay, ∆erg6 mcm4chaos3 strain; format: cell-based; conditions: Saccharomyces cerevisiae; growth over 24 h
Mcm2-7 [4] = test system: T2, Mcm2-7; experiment: ssDNA double filter-binding assay, Mcm2-7; parameters: species or system Saccharomyces cerevisiae; conditions: 1 mM compound, 150 nM helicase
[5] = test system: S. cerevisiae ∆erg6 (UPY675); experiment: Yeast growth inhibition, 96-well assay, ∆erg6 strain; format: cell-based, Saccharomyces cerevisiae
SV40 large TAg [6] = target: T1, SV40 large TAg; experiment: ssDNA double filter-binding assay, TAg; parameters: species or system SV40 (simian virus 40); conditions: 1 mM compound, 150 nM helicase

T1 sequence (P03070 whole entry): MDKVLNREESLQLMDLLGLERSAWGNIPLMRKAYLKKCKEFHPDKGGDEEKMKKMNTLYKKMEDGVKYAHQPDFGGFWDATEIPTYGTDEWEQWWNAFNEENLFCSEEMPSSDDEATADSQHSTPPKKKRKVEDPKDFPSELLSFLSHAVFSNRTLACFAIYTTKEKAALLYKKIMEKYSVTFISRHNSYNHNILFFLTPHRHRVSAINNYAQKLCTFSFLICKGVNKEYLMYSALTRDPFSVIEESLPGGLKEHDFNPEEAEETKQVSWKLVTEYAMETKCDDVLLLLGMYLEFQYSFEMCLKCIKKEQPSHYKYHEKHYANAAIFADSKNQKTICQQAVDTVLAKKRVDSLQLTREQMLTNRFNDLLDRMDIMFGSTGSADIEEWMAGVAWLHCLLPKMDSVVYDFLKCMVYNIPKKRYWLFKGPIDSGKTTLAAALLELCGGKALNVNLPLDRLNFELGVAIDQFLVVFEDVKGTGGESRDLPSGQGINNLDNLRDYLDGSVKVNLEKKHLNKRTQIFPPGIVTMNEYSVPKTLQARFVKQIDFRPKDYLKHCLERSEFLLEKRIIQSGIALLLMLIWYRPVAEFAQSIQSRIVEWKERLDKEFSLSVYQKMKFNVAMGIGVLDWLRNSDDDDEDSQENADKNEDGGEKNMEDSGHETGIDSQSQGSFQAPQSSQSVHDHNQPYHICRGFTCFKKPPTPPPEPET

**Q.** Which results are given for `O=C(O)c1cn(C2CC2)c2cc(N3CCNCC3)c(F)cc2c1=O` [Ciprofloxacin, ciprofloxacin, reference compound]?
**A.** DNA intercalation (pUC19): little or no intercalation; pIC50 (RPE-hTERT cells): 3.62; effect on ATP hydrolysis of TAg (SV40 large TAg [1]): only modest effects; effect on ATP hydrolysis of Mcm2-7 (Mcm2-7 [2]): only modest effects; pIC50 [3]: 2.89; effect on ssDNA binding of Mcm2-7 (Mcm2-7 [4]): only modest effects; growth response of ∆erg6 yeast ([5]; Figure 4A): demonstrable growth sensitivity; pIC50 ([5]; Saccharomyces cerevisiae, ∆erg6 strain, growth over 24 h, value (95% CI), read-out: IC50 Yeast): 3.23; effect on ssDNA binding of TAg (SV40 large TAg [6]): only modest effects
